The target of series [1] is T1, A tetrodotoxin-resistant voltage-gated sodium channel (NAVI1.5) (Homo sapiens, UniProt Q14524).
T1 construct: DiscoverX (SAFETYscan contract panel)
The experiment in a line: cell-based. To be noted: read-out: Maximal Response.

A further series concerns male C57BL/6 mice. The experiment in a line: Acute tolerance in mice, single iv dose. The series is classed as in vivo. The procedure: (§1) This pilot study was conducted to obtain acute information of the dose toxicity of HU-MCA-13 (Compound 13 in Scheme 1) in male mice. Male C57BL/6 mice, were injected intravenously with 0.2 ml of HU-MCA-13 in a dose of 250 mg/kg. Mice were monitored for 4 consecutive weeks for autonomic and neurotoxicity symptoms. The mortality and changes on body weight, clinical signs, gross observation, were monitored up to 30 days after treatment. No mortality was found at this high dose of 250 mg/kg. […] The mice were examined once a week for autonomic symptoms by measuring salivation, urinary delivery, pupillary constriction, heart rate, blood pressure, and hair contraction. […] Occurrences of either flaccid or spastic paralysis of the legs were not observed. […] Furthermore, no mice sudden deaths occurred within 24 hours after the injection or during the 4 weeks of observation. […] Sensory motor tests were scored individually and according to the modified neurologic function severity score (mNSS). The data from each individual test and the total score calculated from individual tests that make up the mNSS were measured. The following assays were used: a. beam balance test—mice were placed on a 1-inch wide beam for 60 seconds. A normal response is balance with steady posture for 60 seconds (a score of 0). Deficits are scored if the rat: grasps the side of the beam (a score of 1), hugs the beam and one limb falls down from the beam (a score of 2), hugs the beam and two limbs fall off the beam (a score of 3), attempts to balance on the beam, but falls off from 60 seconds (a score of 4), attempts to balance on the beam but falls off from […], or falls off with no attempt to balance or hang on the beam in <20 seconds (a score of 6); b. foot fault test—forelimb movement dysfunction, while walking on elevated metal grids, was monitored. The animal was placed on horizontal grids (85.5×26.5×20) cm with a glass enclosure for observation. With each weight bearing step, the forelimb can fall or slip between the metal support bars, an event recorded as a foot fault. The total number of forelimb steps and the total number of foot faults were recorded. The percentage of forelimb foot faults to the total steps that occurred within 2 minutes marks the test results; c. hind limb placing test—This test monitors reposition of hind limbs placed down and away from the table edge. The ability to retrieve and place the hind limbs back onto the table was scored. Immediate and complete limb retrieval was scored 0, delayed (>2 seconds) limb retrieval and/or interspersed flailing was scored 1, and no limb retrieval was scored 2; d. Increasing platform angle to slide test—This test monitors the strength and stability of resistance to slide down an inclined platform. It deploys a clean wooden board (60 cm by 40 cm) positioned horizontally. Mice were placed on the board with head facing up the increasing incline. The board then swings to increase the degree of inclination the rat experiences until slipping down the board feet first. The degree of the angle at which the rat relinquishes their grip/stance on the board (slips down) constitute the test results; e. the forelimb whole body suspension test—The test measures grip strength by duration of suspension by forepaws. The rat is suspended on a metal bar (diameter 5 mm) which it tightly holds onto by its forelimbs. The time (seconds) during which each rat could sustain its body weight while holding onto the bar is recorded. The mice drop from the bar onto soft material with no harm. The test was repeated three times and a mean result per rat was used as the score. Cumulatively these sensory motor/neurological findings indicate acute tolerability of 250 mg/kg HU-MCA-13 iv injection in Male C57BL/6 mice.

Series [2] is described as follows: Acute tolerance in mice, single iv dose. The series is classed as in vivo. To be noted: C57BL/6, mouse, in vivo; male mice; predicted from the 250 mg/kg iv study; read-out: LD50 after single dose. On the procedure:
as §1

Series [3] concerns the target T2, cAMP-specific 3′,5′-cyclic phosphodiesterase 4D2 (PDE4D2) (Homo sapiens, UniProt Q08499).
T2 construct: DiscoverX (SAFETYscan contract panel)
The experiment in a line: SAFETYscan PDE4D2 Enzymatic. To be noted: Inhibitor mode; 10 μM HU-MCA-13; read-out: Maximal Response. The series is classed as biochemical.

Series [4] deals with Opioid Receptor Kappa 1 (OPRK1) (Homo sapiens, UniProt P41145). The experiment in a line: SAFETYscan OPRK1 cAMP. The series is classed as cell-based. To be noted: 10 μM HU-MCA-13, read-out: Maximal Response.
The mark [5] stands for this setting: 250 mg/kg iv, same for 1% DMSO group.

Like-named read-outs stand apart in the source and are kept apart here.

Sequence of Opioid Receptor Kappa 1 (OPRK1) (P41145 whole entry): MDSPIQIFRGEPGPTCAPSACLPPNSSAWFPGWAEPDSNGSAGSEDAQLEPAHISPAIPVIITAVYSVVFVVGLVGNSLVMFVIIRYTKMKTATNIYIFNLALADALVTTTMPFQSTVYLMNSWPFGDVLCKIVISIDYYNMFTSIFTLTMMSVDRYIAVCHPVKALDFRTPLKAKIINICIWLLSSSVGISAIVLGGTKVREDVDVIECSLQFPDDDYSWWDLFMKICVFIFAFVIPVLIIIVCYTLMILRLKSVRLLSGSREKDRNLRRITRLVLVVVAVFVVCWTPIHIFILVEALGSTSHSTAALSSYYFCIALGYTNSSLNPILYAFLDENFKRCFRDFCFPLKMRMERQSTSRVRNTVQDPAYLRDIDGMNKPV
T2 sequence (Q08499 303-809 limits assumed): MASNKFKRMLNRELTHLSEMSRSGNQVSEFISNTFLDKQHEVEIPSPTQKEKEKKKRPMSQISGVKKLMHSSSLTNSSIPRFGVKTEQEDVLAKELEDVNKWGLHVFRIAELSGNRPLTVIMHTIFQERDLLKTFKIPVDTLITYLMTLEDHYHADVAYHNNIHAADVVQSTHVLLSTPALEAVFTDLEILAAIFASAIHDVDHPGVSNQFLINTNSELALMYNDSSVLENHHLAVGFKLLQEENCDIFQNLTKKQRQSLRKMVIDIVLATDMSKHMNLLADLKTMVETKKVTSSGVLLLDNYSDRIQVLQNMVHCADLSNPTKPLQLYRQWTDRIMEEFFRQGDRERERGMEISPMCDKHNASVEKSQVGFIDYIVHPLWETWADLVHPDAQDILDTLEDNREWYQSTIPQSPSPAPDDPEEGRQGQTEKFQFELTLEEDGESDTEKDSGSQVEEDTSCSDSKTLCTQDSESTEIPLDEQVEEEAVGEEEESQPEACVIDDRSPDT

The LD50 is the dose expected to kill half of the subjects tested. In the case of `C=CCC1CCC[C@@H](CCC(=O)O)C1=C` (stereo partly drawn) [Compound 13], the Emax is 0% in series [1], 0% in series [3], 7.89% in series [4] (Agonist mode) and 0% in series [4] (Antagonist mode). In addition, in the series with male C57BL/6 mice (250 mg/kg iv), the “neurotoxicity signs (paralysis, motor activity, behavior)” value is reported as “No paralysis, altered motor activity, or irregular behavior was observed”. In the series on male C57BL/6 mice (250 mg/kg iv single dose, up to 30 days), the mortality result is listed as “No mortality”. For the same compound, in the series with male C57BL/6 mice (250 mg/kg iv vs 1% DMSO), the “autonomic symptoms (salivation, urinary delivery, pupillary constriction, heart rate, blood pressure, hair contraction)” value was “no differences were observed”. For the same compound, the “changes on body weight” value with male C57BL/6 mice (250 mg/kg iv vs 1% DMSO treated group) is listed as “No significant changes”. Besides, the “body weight at end” value with male C57BL/6 mice (setting [5]) was found to be 27 gram. For the same compound, in the series with male C57BL/6 mice (setting [5]), the “body weight at start” value came out at 21 gram. Further, the “cutaneous hematomas around the injection site or at distant locations” value in the series on male C57BL/6 mice (within 24 hours after injection, 250 mg/kg iv) is given as “have not been observed”. Besides, in series [2], the LD50 at 30 days was above 2000 mg/kg.

The record behind these values is patent US20200239398A1, “METHYLENE-CYCLOALKYLACETATE DERIVATIVES AND THEIR USE IN TREATMENT OF NEUROTROPIC CONDITIONS” (Yissum Research Development Company of The Hebrew …, priority 2018, published 2020).
